The test system of series [1] is L1210. Briefly: Growth inhibition of mouse L1210 cells at 9 x 10^-7 M after 40 hrs by trypan blue exclusion assay. The series is classed as functional. The note with it: L1210, 40 h, read-out: GI.
Series [2] relates to Enterococcus faecium. The series is described as follows: Antibacterial activity against Streptococcus faecium at 8 x 10^-5 M. The series is classed as functional. The note with it: read-out: GI.
The subject of series [3] is Escherichia coli. Briefly: Antibacterial activity against Escherichia coli at 1 x 10^-3 M. The series is classed as functional. The note with it: read-out: GI.
For series [4], the system named is Escherichia coli. Briefly: Antibacterial activity against Escherichia coli K-12 at 1 x 10^-3 M. The series is classed as functional. The note with it: read-out: GI.
The test system of series [5] is L1210. Briefly: Antitumor activity against mouse L1210 cells allografted in DBA/2 Ha mouse assessed as increase in life span of host at 100 mg/kg, ip qd for 6 days relative to control. The series is classed as functional. The note with it: route intraperitoneal.
Series [6] deals with L1210. Briefly: Antitumor activity against mouse L1210 cells allografted in DBA/2 Ha mouse assessed as increase in life span of host at 200 mg/kg, ip qd for 6 days relative to control. The series is classed as functional. The note with it: route intraperitoneal.
Series [7] concerns L1210. The series is described as follows: Antitumor activity against mouse L1210 cells allografted in DBA/2 Ha mouse assessed as increase in life span of host at 400 mg/kg, ip qd for 6 days relative to control. The note with it: route intraperitoneal. The series is classed as functional.
For series [8], the system named is Mus musculus. Briefly: Toxicity in mouse L1210 cells allografted DBA/2 Ha mouse assessed as overt signs of toxicity at 100 to 400 mg/kg, ip qd for 6 days. The series is classed as organism-based. Set-up: dose 100-400 mg/kg, route intraperitoneal. The note with it: in vivo, 144 h.
The subject of series [9] is L1210. Briefly: Growth inhibition of mouse L1210 cells at inhibitor/thymidine ratio 50 after 40 hrs by trypan blue exclusion assay. The series is classed as functional.
Series [10] relates to L1210. The series is described as follows: Growth inhibition of mouse L1210 cells at inhibitor/deoxyuridine ratio 2 after 40 hrs by trypan blue exclusion assay. The series is classed as functional.
Series [11] has as its system L1210. Briefly: Growth inhibition of mouse L1210 cells at inhibitor/deoxycytidine ratio 0.2 after 40 hrs by trypan blue exclusion assay. The series is classed as functional.
Series [12] deals with L1210. The series is described as follows: Growth inhibition of mouse L1210 cells at inhibitor/uridine ratio 0.04 after 40 hrs by trypan blue exclusion assay. The series is classed as functional.
The subject of series [13] is L1210. The series is described as follows: Growth inhibition of mouse L1210 cells at inhibitor/cytidine ratio 0.02 after 40 hrs by trypan blue exclusion assay. The series is classed as functional.

As for `Cc1cn([C@H]2C[C@H](O)[C@@H](CO)O2)c(=O)c[n+]1[O-]`, the inhibition of growth at 0.9 µM in series [1] came to 50%. In addition, the inhibition of growth at 80 µM in series [2] worked out at 50%. In addition, the inhibition of growth at 1000 µM in [3] came out at 20%; in [4] it was 30%. Moreover, the Activity is 18% in series [5], 30% in series [6], 55% in series [7] and “Non-toxic” in series [8]. Besides, the “growth inhibition (GI)” value in series [9], in [10], in series [11], in [12] and in [13] was 50% each time.
